ChEMBL document CHEMBL1201862, “PubChem BioAssay data set” (2004)
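Method: 48-hour compound exposure of cells in 96-well plates, five concentrations, linear interpolation of endpoints. The concentration for 50% growth inhibition is given as GI50.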 Calls of active or inactive are those of the source. Cut-off read from the data, not from the text of the source: active = GI50 up to about 1.1 µM and inactive = higher.

Columns and labels:
Test in all cases: growth of human tumour cells (NCI), 48 h
HCC 2998 = test system: HCC 2998
CCRF-CEM = test system: CCRF-CEM
HCT-116 = test system: HCT-116
IGROV-1 = test system: IGROV-1
M14 = test system: M14
LOX IMVI = test system: LOX IMVI
MDA-MB-231 = test system: MDA-MB-231
SK-MEL-2 = test system: SK-MEL-2
UACC-257 = test system: UACC-257
NCI-H460 = test system: NCI-H460
SF-295 = test system: SF-295
OVCAR-3 = test system: OVCAR-3
RPMI-8226 = test system: RPMI-8226
PC-3 = test system: PC-3
NCI-H23 = test system: NCI-H23
Hs-578T = test system: Hs-578T
ACHN = test system: ACHN
NCI/ADR-RES = test system: NCI/ADR-RES
Malme-3M = test system: Malme-3M
T47D = test system: T47D

Measured: GI50

CCCCC(=O)NC1(c2cc3ccccc3s2)CCCCC1
inactive: HCC 2998 > 100 µM | CCRF-CEM 19.4 µM | HCT-116 > 100 µM | IGROV-1 > 100 µM | M14 > 100 µM | LOX IMVI > 100 µM | MDA-MB-231 > 100 µM | SK-MEL-2 > 100 µM | UACC-257 > 100 µM | NCI-H460 > 100 µM | SF-295 > 100 µM | OVCAR-3 > 100 µM | RPMI-8226 8.81 µM | PC-3 > 100 µM | NCI-H23 > 100 µM | Hs-578T > 100 µM | ACHN > 100 µM | NCI/ADR-RES > 100 µM | Malme-3M > 100 µM | T47D > 100 µM

CCCCCOC(=O)C(=O)Nc1[nH]nnc1C(N)=O
inactive: HCC 2998 > 100 µM | CCRF-CEM > 100 µM | HCT-116 > 100 µM | IGROV-1 > 100 µM | M14 > 100 µM | LOX IMVI > 100 µM | MDA-MB-231 > 100 µM | SK-MEL-2 > 100 µM | UACC-257 > 100 µM | NCI-H460 > 100 µM | SF-295 > 100 µM | OVCAR-3 > 100 µM | RPMI-8226 > 100 µM | PC-3 > 100 µM | NCI-H23 > 100 µM | Hs-578T > 100 µM | ACHN > 100 µM | NCI/ADR-RES > 100 µM | Malme-3M > 100 µM | T47D > 100 µM

COc1ccc(C2c3cc4c(cc3OC(NNC(N)=O)C2C)OCO4)cc1 (stereo not given)
inactive: HCC 2998 8.51 µM | CCRF-CEM 2.95 µM | HCT-116 4.7 µM | IGROV-1 6.59 µM | M14 6.41 µM | LOX IMVI 4.39 µM | MDA-MB-231 11.7 µM | SK-MEL-2 10.8 µM | UACC-257 10.2 µM | NCI-H460 4.94 µM | SF-295 3.58 µM | OVCAR-3 3.85 µM | RPMI-8226 3.3 µM | PC-3 4.69 µM | NCI-H23 14.6 µM | Hs-578T 3.53 µM | ACHN 8.75 µM | NCI/ADR-RES 7.5 µM | Malme-3M 6.67 µM | T47D 27.4 µM

CCOC(=O)C(C#N)C1=CC(=O)C(=O)c2ccc(OC)cc21 (stereo not given)
inactive: HCC 2998 16.2 µM | CCRF-CEM 43.3 µM | HCT-116 20.7 µM | IGROV-1 19.9 µM | M14 15.6 µM | LOX IMVI 21.1 µM | MDA-MB-231 14.6 µM | SK-MEL-2 12.8 µM | UACC-257 17 µM | NCI-H460 24.2 µM | SF-295 23.3 µM | OVCAR-3 17.9 µM | RPMI-8226 > 100 µM | PC-3 28.5 µM | NCI-H23 15.5 µM | Hs-578T 18.1 µM | ACHN 15.3 µM | NCI/ADR-RES 20.1 µM | Malme-3M 16.9 µM | T47D 14.9 µM

CC(C)(C)C(=O)CC1=Nc2ccccc2SC1(O)CC(=O)C(C)(C)C (stereo not given)
inactive: HCC 2998 14.8 µM | CCRF-CEM 8.49 µM | HCT-116 24 µM | IGROV-1 16 µM | M14 29.8 µM | LOX IMVI 17.1 µM | MDA-MB-231 17.8 µM | SK-MEL-2 13.7 µM | UACC-257 37.1 µM | NCI-H460 13.5 µM | SF-295 24.8 µM | OVCAR-3 17 µM | RPMI-8226 8.67 µM | PC-3 22.5 µM | NCI-H23 24.1 µM | Hs-578T 20.1 µM | ACHN 23.2 µM | NCI/ADR-RES 21.9 µM | Malme-3M 33.3 µM | T47D 19.7 µM

NC(CSCc1ccccc1)C(=O)O (stereo not given)
inactive: HCC 2998 > 100 µM | CCRF-CEM > 100 µM | HCT-116 > 100 µM | IGROV-1 > 100 µM | M14 > 100 µM | LOX IMVI > 100 µM | MDA-MB-231 > 100 µM | SK-MEL-2 > 100 µM | UACC-257 > 100 µM | NCI-H460 > 100 µM | SF-295 > 100 µM | OVCAR-3 > 100 µM | RPMI-8226 > 100 µM | PC-3 > 100 µM | NCI-H23 > 100 µM | Hs-578T > 100 µM | ACHN > 100 µM | NCI/ADR-RES > 100 µM | Malme-3M > 100 µM | T47D > 100 µM

CC(=O)N(CN1C(=O)CCC1C(=O)O)c1ccc(C)cc1 (stereo not given)
inactive: HCC 2998 > 100 µM | CCRF-CEM > 100 µM | HCT-116 > 100 µM | IGROV-1 > 100 µM | M14 > 100 µM | LOX IMVI > 100 µM | MDA-MB-231 > 100 µM | SK-MEL-2 > 100 µM | UACC-257 > 100 µM | NCI-H460 > 100 µM | SF-295 > 100 µM | OVCAR-3 > 100 µM | RPMI-8226 > 100 µM | PC-3 > 100 µM | NCI-H23 > 100 µM | Hs-578T > 100 µM | ACHN > 100 µM | NCI/ADR-RES > 100 µM | Malme-3M > 100 µM | T47D > 100 µM

Cc1cc(/N=N/c2c(O)ccc3ccccc23)ccc1/N=N/c1cccc([N+](C)(C)C)c1
inactive: HCC 2998 21.1 µM | CCRF-CEM 7.16 µM | HCT-116 9.82 µM | IGROV-1 2.87 µM | M14 13.6 µM | LOX IMVI 4.56 µM | MDA-MB-231 8.57 µM | SK-MEL-2 7.83 µM | UACC-257 12.2 µM | NCI-H460 9.42 µM | SF-295 20.6 µM | OVCAR-3 5.21 µM | RPMI-8226 4.22 µM | PC-3 6.81 µM | NCI-H23 13.3 µM | Hs-578T 4.17 µM | ACHN 23.8 µM | NCI/ADR-RES 74.1 µM | Malme-3M 9.64 µM | T47D 6.22 µM

CC(C)[C@](O)(C(=O)OCC1=CC[N+]2([O-])CC[C@@H](O)[C@@H]12)[C@H](C)O (stereo not given in full) [INDICINE N-OXIDE]
inactive: HCC 2998 > 10000 µM | CCRF-CEM > 9160 µM | HCT-116 > 10000 µM | IGROV-1 > 9330 µM | M14 > 10000 µM | LOX IMVI > 7800 µM | MDA-MB-231 > 10000 µM | SK-MEL-2 > 10000 µM | UACC-257 > 10000 µM | NCI-H460 5960 µM | SF-295 > 10000 µM | OVCAR-3 9910 µM | RPMI-8226 > 10000 µM | PC-3 > 10000 µM | NCI-H23 > 6000 µM | Hs-578T > 5430 µM | ACHN 4600 µM | NCI/ADR-RES > 10000 µM | Malme-3M > 9420 µM | T47D > 10000 µM

O=S(=O)(CCCCl)SCCCCl
inactive: HCC 2998 > 100 µM | CCRF-CEM 9.1 µM | HCT-116 20.9 µM | IGROV-1 37.5 µM | M14 21.5 µM | LOX IMVI 19.2 µM | MDA-MB-231 29.9 µM | SK-MEL-2 44.8 µM | UACC-257 45.9 µM | NCI-H460 39.4 µM | SF-295 > 64.9 µM | OVCAR-3 31.1 µM | RPMI-8226 21.9 µM | PC-3 30.1 µM | NCI-H23 45.1 µM | Hs-578T 27.8 µM | ACHN 55.7 µM | NCI/ADR-RES 31.9 µM | Malme-3M 33.6 µM | T47D 26.9 µM
